The nature of this test: Fluorescence Based Assay: The details of the KEAP1 KELCH ThermoFluor® Assay Construct are as follows: Kelch domain of human KEAP 1 (321-624 aa) was used in the assay. The protein was expressed in E. coli with 6His tag that was cleaved prior to receipt for use.ThermoFluor® experiments were carried out using instruments owned by Janssen Research and Discovery, L.L.C. through its acquisition of 3-Dimensional Pharmaceuticals, Inc. 1,8-ANS (Invitrogen) was used as a fluorescent dye. Protein (KEAP Kelch) and compound solutions were dispensed into black 384-well polypropylene PCR microplates (Abgene) and overlayed with silicone oil (1 μL, Fluka, type DC 200) to prevent evaporation.Reference wells contained KEAP Kelch without compounds, and the assay conditions were as follows: 1.1 μM (0.037mg/mL) KEAP Kelch, 80 μM 1,8-ANS, 25 mM PIPES, pH 7.0, 100 mM NaCl, 0.002% Tween-20. (DSF heats the sample and reads unfolding from a dye or from intrinsic fluorescence.)

Broadly, the Kd is the free concentration of one partner at which half of the binding sites on the other are occupied at equilibrium, for simple one-to-one binding.

Each structure is given as a SMILES string. Some results are limits rather than exact numbers.

`Cc1ccc([C@H](c2ccn3c(C(F)(F)F)nnc3c2C)C(C)(C)C(=O)O)cc1CN1CC2(CCOCC2)Oc2nc(N[C@H](C)C(C)(C)O)c(C)cc2S1(=O)=O` registered a Kd of under 1 nM. As to `Cc1ncc([C@H](c2ccc3c(nnn3C3CC3)c2C)C(C)(C)C(=O)O)cc1CN1CC2(CCOCC2)Oc2ncccc2S1(=O)=O`, the Kd was under 1 nM.

For `Cc1ccc([C@@H](CC(=O)O)c2ccn3c(C(F)(F)F)nnc3c2C)cc1CN1C[C@]2(C)CCCN2c2ncccc2S1(=O)=O`, the dissociation constant Kd was under 1 nM. In the case of `Cc1ccc([C@H](CC(=O)O)c2ccn3c(C(F)(F)F)nnc3c2C)cc1CN1CC2(CC2)Oc2nc(NCCN3CCCCC3)ccc2S1(=O)=O`, the equilibrium dissociation constant (Kd) is under 1 nM. Molecule `Cc1ccc(C(CC(=O)O)c2ccn3c(C(F)F)nnc3c2C)cc1CN1CC2(COC2)Oc2ncccc2S1(=O)=O` (stereo unspecified) gave a dissociation constant (Kd) of under 1 nM. As for `Cc1ccc([C@H](CC(=O)O)c2ccn3c(C(F)(F)F)nnc3c2C)nc1CN1CC2(COC2)Oc2ncccc2S1(=O)=O`, the figure is under 1 nM; as for `Cc1ccc([C@@H](c2ccn3c(C4CC4)nnc3c2C)C(C)(C)C(=O)O)cc1CN1CC2(CCOCC2)Oc2ncccc2S1(=O)=O`, under 1 nM; as for `Cc1cnc2c(c1)S(=O)(=O)N(Cc1cc(C(c3ccn4c(C(F)F)nnc4c3C)C(C)(C)C(=O)O)ccc1C)CC1(CCOCC1)O2` (stereo unspecified), under 1 nM.

As for `Cc1ccc(C(CC(=O)O)c2ccn3c(C(F)(F)F)nnc3c2C)cc1CN1C[C@H]2CCCN2c2ncccc2S1(=O)=O` (stereo partly specified), the Kd is under 1 nM. As for `Cc1cnc([C@@H](c2ccn3c(C(F)F)nnc3c2C)C(C)(C)C(=O)O)cc1CN1CC2(CC2)Oc2nc(OCCN3CCCCC3)c(C)cc2S1(=O)=O`, the figure is under 1 nM.

The molecule `CCn1nnc2c(C)c(C(CC(=O)O)c3ccc(C)c(CN4CC5(CC5)Oc5ncccc5S4(=O)=O)n3)ccc21` (stereo unspecified) displayed a dissociation constant (Kd) of under 1 nM.

Regarding `Cc1ccc([C@@H](CC(=O)O)c2ccn3c(C(F)(F)F)nnc3c2C)cc1CN1C[C@@H]2CCCCN2c2ncccc2S1(=O)=O`, the Kd is under 1 nM. Molecule `CCn1nnc2c(C)c(C(CC(=O)O)c3ccc(C)c(CN4C[C@@H]5CCCN5c5ncccc5S4(=O)=O)c3)ccc21` (stereo partly specified) yielded an equilibrium dissociation constant (Kd) of under 1 nM. As to `CCn1nnc2c(C)c(C(CC(=O)O)c3ccc(C)c(CN4CC5(CCOCC5)Oc5ccc(F)cc5S4(=O)=O)n3)ccc21` (stereo unspecified), the Kd was under 1 nM. For the molecule `Cc1ccc([C@H](CC(=O)O)c2ccn3c(C(F)(F)F)nnc3c2C)cc1CN1CC(C)(C)Oc2ncccc2S1(=O)=O`, the Kd is under 1 nM. `Cc1ccc([C@@H](CC(=O)O)c2ccn3c(C)nnc3c2)cc1CN1C[C@H]2CCCN2c2ccccc2S1(=O)=O`: the equilibrium dissociation constant (Kd) was under 1 nM. Regarding `Cc1cnc2c(c1)S(=O)(=O)N(Cc1cc([C@H](c3ccc4c(nnn4C4CC4)c3C)C(C)(C)C(=O)O)ccc1C)CC1(CNC1)O2`, the Kd was under 1 nM. Regarding `Cc1ccc([C@@H](CC(=O)O)c2ccn3c(C(F)(F)F)nnc3c2C)nc1CN1CC2(COC2)Oc2ccccc2S1(=O)=O`, the dissociation constant (Kd) was under 1 nM.

`Cc1ccc([C@@H](CC(=O)O)c2ccn3c(C(F)F)nnc3c2C)cc1CN1C[C@H]2CCCN2c2ncccc2S1(=O)=O` displayed a Kd of under 1 nM. `Cc1ccc([C@H](CC(=O)O)c2ccc3c(nnn3C3CC3)c2C)cc1CN1C[C@H]2CCCCN2c2ncccc2S1(=O)=O` showed a Kd of under 1 nM.

Turning to `Cc1ccc([C@@H](c2ccn3c(C(F)(F)F)nnc3c2C)C(C)(C)C(=O)O)cc1CN1CC2(CCOCC2)Oc2nc(OCCN3CCOCC3)ccc2S1(=O)=O`, the Kd is under 1 nM. For `Cc1ccc([C@@H](CC(=O)O)c2ccn3c(C(F)F)nnc3c2C)cc1CN1CC2(CC2)Oc2ncccc2S1(=O)=O`, the equilibrium dissociation constant (Kd) is under 1 nM.

`Cc1ccc([C@@H](c2ccn3c(C(F)(F)F)nnc3c2C)C(C)(C)C(=O)O)cc1CN1CC2(CC2)Oc2ncccc2S1(=O)=O` came in with a Kd of under 1 nM. Turning to `Cc1ccc(C(c2cc(C)n3c(C(F)(F)F)nnc3c2C)C(C)C(=O)O)cc1CN1C[C@@H]2CCCCN2c2ncccc2S1(=O)=O` (stereo partly specified), the Kd is under 1 nM. As to `Cc1cnc2c(c1)S(=O)(=O)N(Cc1nc([C@@H](CC(=O)O)c3ccn4c(C(F)(F)F)nnc4c3C)ccc1C)C[C@H]1CCCCN21`, the dissociation constant Kd is under 1 nM. The molecule `CCc1c([C@@H](CC(=O)O)c2ccc(C)c(CN3C[C@H]4CCCCN4c4ncc(C)cc4S3(=O)=O)c2)ccn2c(C(F)(F)F)nnc12` returned a Kd of under 1 nM. As for `CCn1nnc2c(C)c([C@H](CC(=O)O)c3ccc(C)c(CN4C[C@H]5CCCN5c5ccccc5S4(=O)=O)c3)ccc21`, the equilibrium dissociation constant (Kd) was under 1 nM. For `Cc1ccc(C(CC(=O)O)c2ccc3c(nnn3CC3CC3)c2C)cc1CN1C[C@H]2CCCN2c2ncccc2S1(=O)=O` (stereo partly specified), the dissociation constant (Kd) is under 1 nM. To `Cc1ccc([C@H](CC(=O)O)c2ccn3c(C(F)(F)F)nnc3c2C)cc1CN1CC2(CC2)Oc2nc(NCCN3CCOCC3)ccc2S1(=O)=O` belongs under 1 nM; to `Cc1ccc([C@@H](c2ccn3c(C(F)(F)F)nnc3c2C)C(C)(C)C(=O)O)cc1CN1CC2(CC2)Oc2nc(OCCN3CCC3)c(C)cc2S1(=O)=O`, under 1 nM; to `CC[C@@H]1CN(Cc2cc([C@@H](CC(=O)O)c3cc(OC(F)F)c4c(c3)nnn4C)ccc2C)S(=O)(=O)c2cccnc2O1`, under 1 nM. As to `Cc1ccc([C@H](CC(=O)O)c2ccn3c(C(F)(F)F)nnc3c2C)cc1CN1C[C@@H]2CCCCN2c2ncc(Cl)cc2S1(=O)=O`, the dissociation constant Kd is under 1 nM. Turning to `Cc1ccc(C(CC(=O)O)c2ccn3c(C(F)F)nnc3c2C)cc1CN1C[C@]2(C)CCCN2c2ncccc2S1(=O)=O` (stereo partly specified), the Kd was under 1 nM. In turn, `Cc1ccc([C@H](c2ccn3c(C(F)(F)F)nnc3c2C)C(C)(C)C(=O)O)cc1CN1CC(C)(C)Oc2ncccc2S1(=O)=O` had a Kd of under 1 nM.

`Cc1ccc([C@@H](c2ccn3c(C(F)(F)F)nnc3c2C)C(C)(C)C(=O)O)cc1CN1CC2(CCOCC2)Oc2nc(OCCCO)ccc2S1(=O)=O` showed a dissociation constant (Kd) of under 1 nM. With `Cc1ccc([C@H](CC(=O)O)c2ccn3c(C(F)(F)F)nnc3c2C)cc1CN1CC2(CC2)Oc2nc(N(C)CCCO)ccc2S1(=O)=O`, the Kd is under 1 nM. In turn, `Cc1ccc([C@@H](CC(=O)O)c2ccc3c(nnn3CC3CC3)c2C)cc1CN1C[C@H]2CCCCN2c2ncccc2S1(=O)=O` came in with a Kd of under 1 nM.

As to `Cc1ccc([C@H](c2ccn3c(C(F)(F)F)nnc3c2C)C(C)(C)C(=O)O)cc1CN1CC2(CCOCC2)Oc2nc(OCCC3CCNCC3)c(C)cc2S1(=O)=O`, the Kd is under 1 nM.

In turn, `Cc1ccc([C@H](c2ccn3c(C(F)(F)F)nnc3c2C)C(C)(C)C(=O)O)cc1CN1CC2(CCOCC2)Oc2nc(N[C@H](C)CN3CCOCC3)c(C)cc2S1(=O)=O` had a Kd of under 1 nM.

`Cc1ccc(C(CC(=O)O)c2ccn3c(C(F)(F)F)nnc3c2C)cc1CN1C[C@H]2CCCN2c2ccccc2S1(=O)=O` (stereo partly specified) had a dissociation constant Kd of under 1 nM. `Cc1ccc(C(CC(=O)O)c2ccn3c(C(F)(F)F)nnc3c2C)nc1CN1CC2CCCCN2c2ncc(C#N)cc2S1(=O)=O` (stereo unspecified) gave a dissociation constant Kd of under 1 nM. In turn, `Cc1ccc([C@H](c2ccn3c(C(F)(F)F)nnc3c2C)[C@H](C)C(=O)O)cc1CN1CC2(CC2)Oc2ncccc2S1(=O)=O` came in with a dissociation constant (Kd) of under 1 nM. `Cc1ccc(C(CC(=O)O)c2ccc3c(nnn3CC3CC3)c2C)cc1CN1C[C@@H]2CCCCN2c2ncccc2S1(=O)=O` (stereo partly specified) returned a dissociation constant (Kd) of under 1 nM.

Turning to `Cc1ccc([C@H](CC(=O)O)c2ccc3c(nnn3C3CC3)c2C)cc1CN1CC2(COC2)Oc2ccccc2S1(=O)=O`, the Kd was under 1 nM. `Cc1ccc([C@H](c2ccn3c(C(F)(F)F)nnc3c2C)C(C)(C)C(=O)O)cc1CN1CC2(CCOCC2)Oc2nc(NCCN3CCOCC3)c(C)cc2S1(=O)=O` returned a dissociation constant Kd of under 1 nM. In turn, `Cc1cnc2c(c1)S(=O)(=O)N(Cc1cc([C@H](CC(=O)O)c3ccn4c(C(F)F)nnc4c3C)ccc1C)CC1(CC1)O2` registered a dissociation constant (Kd) of under 1 nM. `Cc1ccc([C@H](CC(=O)O)c2ccn3c(C(F)(F)F)nnc3c2C)nc1CN1C[C@@H]2CCCCN2c2ncc(F)cc2S1(=O)=O` registered a Kd of under 1 nM.

Molecule `Cc1ccc(C(CC(=O)O)c2ccn3c(C(F)(F)F)nnc3c2C)nc1CN1CC2(COC2)Oc2ncccc2S1(=O)=O` (stereo unspecified) had a Kd of under 1 nM. Consider `Cc1ccc([C@@H](c2ccn3c(C(F)(F)F)nnc3c2C)C(C)(C)C(=O)O)cc1CN1CC2(CC2)Oc2nc(OCCN3CCCCC3)c(C)cc2S1(=O)=O`, for which the dissociation constant (Kd) is under 1 nM.

In the case of `Cc1ccc([C@@H](CC(=O)O)c2ccn3c(C(F)(F)F)nnc3c2)cc1CN1C[C@@H]2CCCN2c2ncccc2S1(=O)=O`, the dissociation constant Kd was under 1 nM. Take `CCn1nnc2c(C)c([C@H](CC(=O)O)c3ccc(C)c(CN4C[C@H]5CCCN5c5ncccc5S4(=O)=O)n3)ccc21`: the Kd was under 1 nM. With `Cc1cnc2c(c1)S(=O)(=O)N(Cc1cc([C@@H](c3ccn4c(C(F)(F)F)nnc4c3C)C(C)(C)C(=O)O)ccc1C)CC1(COC1)O2`, the equilibrium dissociation constant (Kd) was under 1 nM.

As to `Cc1ccc([C@H](CC(=O)O)c2ccn3c(C(F)(F)F)nnc3c2C)cc1CN1CC2(CC2)Oc2ncc(Cl)cc2S1(=O)=O`, the dissociation constant Kd is under 1 nM. The molecule `Cc1ccc([C@H](CC(=O)O)c2ccn3c(C(F)(F)F)nnc3c2C)cc1CN1C[C@@H]2CCC(F)(F)CN2c2ncccc2S1(=O)=O` yielded a dissociation constant Kd of under 1 nM. The molecule `Cc1ccc([C@@H](CC(=O)O)c2ccc3c(nnn3CC3CC3)c2C)cc1CN1C[C@@H]2CCCCN2c2ncccc2S1(=O)=O` had a Kd of under 1 nM. To `Cc1ccc([C@H](CC(=O)O)c2ccc3c(nnn3CC3CC3)c2C)cc1CN1C[C@H]2CCCCN2c2ncccc2S1(=O)=O` belongs under 1 nM.

`Cc1ccc([C@@H](c2ccn3c(C(F)F)nnc3c2C)C(C)(C)C(=O)O)cc1CN1CC2(CCOCC2)Oc2nc(OCCN3CCCCC3)c(C)cc2S1(=O)=O` came in with a dissociation constant Kd of under 1 nM. As for `Cc1ccc(C(CC(=O)O)c2ccn3c(C(F)(F)F)nnc3c2C)cc1CN1CC(C)(C)Oc2ncccc2S1(=O)=O` (stereo unspecified), the figure is under 1 nM. To `Cc1ccc(C(CC(=O)O)c2ccn3c(C(F)F)nnc3c2C)cc1CN1CC2(CC2)Oc2ncccc2S1(=O)=O` (stereo unspecified) belongs under 1 nM; to `Cc1ccc(C(CC(=O)O)c2ccn3c(C(F)(F)F)nnc3c2C)nc1CN1C[C@@H]2CCCCN2c2ncc(F)cc2S1(=O)=O` (stereo partly specified), under 1 nM; to `CC[C@@H]1CN(Cc2cc([C@H](CC(=O)O)c3cc(OC(F)F)c4c(c3)nnn4C)ccc2C)S(=O)(=O)c2cccnc2O1`, under 1 nM.

The values above are taken from ChEMBL document CHEMBL5729293, “Inhibitors of KEAP1-Nrf2 protein-protein interaction” (2022).
